Assay results as given in patent publication US9212361B2, “Methods and pharmaceutical compositions for the treatment of hypertension” (INSERM, priority 2013, dated 2015).

How the values were obtained:
[1] = biological target: T1, MR (Rattus norvegicus, UniProt P22199); assay: NGAL expression in dendritic cells incubated with aldo +/- spironolactone; type: cell-based; conditions: 24 hr
T1 construct: endogenous in cells; host or cells: dendritic cells differentiated with GM-CSF from bone marrow stem cells of male SD rats
T1 sequence (P22199 1-981): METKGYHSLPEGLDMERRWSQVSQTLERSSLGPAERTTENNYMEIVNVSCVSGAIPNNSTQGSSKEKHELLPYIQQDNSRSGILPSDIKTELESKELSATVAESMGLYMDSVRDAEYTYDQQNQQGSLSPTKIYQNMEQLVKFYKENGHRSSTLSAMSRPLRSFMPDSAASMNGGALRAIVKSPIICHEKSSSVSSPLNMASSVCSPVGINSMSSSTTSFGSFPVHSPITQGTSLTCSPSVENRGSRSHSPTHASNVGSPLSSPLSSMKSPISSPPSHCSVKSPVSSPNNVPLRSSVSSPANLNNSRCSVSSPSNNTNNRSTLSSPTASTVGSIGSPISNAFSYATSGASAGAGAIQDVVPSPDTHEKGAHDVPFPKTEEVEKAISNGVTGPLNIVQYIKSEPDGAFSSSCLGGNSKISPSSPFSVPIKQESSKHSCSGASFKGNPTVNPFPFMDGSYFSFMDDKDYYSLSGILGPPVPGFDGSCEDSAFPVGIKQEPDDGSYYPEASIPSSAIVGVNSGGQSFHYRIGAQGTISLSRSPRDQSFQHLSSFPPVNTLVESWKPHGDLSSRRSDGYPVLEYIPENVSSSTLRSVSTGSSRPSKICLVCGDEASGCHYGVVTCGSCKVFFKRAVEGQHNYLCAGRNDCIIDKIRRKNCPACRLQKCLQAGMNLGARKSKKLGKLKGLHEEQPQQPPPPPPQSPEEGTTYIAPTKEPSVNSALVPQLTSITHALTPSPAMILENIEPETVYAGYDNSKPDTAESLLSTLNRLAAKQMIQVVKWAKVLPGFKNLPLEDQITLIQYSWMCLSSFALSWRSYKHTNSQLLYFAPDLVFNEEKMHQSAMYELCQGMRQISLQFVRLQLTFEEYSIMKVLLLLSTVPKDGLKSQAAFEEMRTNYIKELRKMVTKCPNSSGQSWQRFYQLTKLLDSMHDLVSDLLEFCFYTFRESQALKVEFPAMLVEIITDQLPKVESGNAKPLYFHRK
Experimental: (§1) FIG. 3. NGAL is an aldo/MR target in DCs (A) and macrophages (B). A:DCs were obtained from male SD rat bone marrow stem cells and differentiated during 6 days with GM-CSF. DCs were incubated with aldo (10 nM), spironolactone (5 μM), aldo plus spironolactone, or vehicle for 24 hr. *p<0.05 by ANOVA analysis (n=4); B: peritoneal macrophages from WT mice were stimulated or not with aldo (10 nM+/−RU28318 (MR antagonist). NGAL behaves similarly as MCP1 (monocy chemoattractant protein).
(§2) Macrophages are purified from abdominal cavity from mice, after 4 days of inflammation induced by thioglycollate injection. Dendritic cells are obtained after 7 days of incubation of bone marrow precursors cells (from mice bone marrow) with GM-CSF (granulocyte macrophage colony-stimulating factor).

[2] = biological target: T2, MR (Mus musculus, UniProt Q8VII8); assay: NGAL expression in peritoneal macrophages stimulated with aldo; type: cell-based; conditions: aldo 10 nM; peritoneal macrophages from WT mice
T2 construct: Macrophages are purified from abdominal cavity from mice; endogenous in cells; host or cells: thioglycollate-elicited peritoneal macrophages from WT mice
T2 sequence (Q8VII8 1-978): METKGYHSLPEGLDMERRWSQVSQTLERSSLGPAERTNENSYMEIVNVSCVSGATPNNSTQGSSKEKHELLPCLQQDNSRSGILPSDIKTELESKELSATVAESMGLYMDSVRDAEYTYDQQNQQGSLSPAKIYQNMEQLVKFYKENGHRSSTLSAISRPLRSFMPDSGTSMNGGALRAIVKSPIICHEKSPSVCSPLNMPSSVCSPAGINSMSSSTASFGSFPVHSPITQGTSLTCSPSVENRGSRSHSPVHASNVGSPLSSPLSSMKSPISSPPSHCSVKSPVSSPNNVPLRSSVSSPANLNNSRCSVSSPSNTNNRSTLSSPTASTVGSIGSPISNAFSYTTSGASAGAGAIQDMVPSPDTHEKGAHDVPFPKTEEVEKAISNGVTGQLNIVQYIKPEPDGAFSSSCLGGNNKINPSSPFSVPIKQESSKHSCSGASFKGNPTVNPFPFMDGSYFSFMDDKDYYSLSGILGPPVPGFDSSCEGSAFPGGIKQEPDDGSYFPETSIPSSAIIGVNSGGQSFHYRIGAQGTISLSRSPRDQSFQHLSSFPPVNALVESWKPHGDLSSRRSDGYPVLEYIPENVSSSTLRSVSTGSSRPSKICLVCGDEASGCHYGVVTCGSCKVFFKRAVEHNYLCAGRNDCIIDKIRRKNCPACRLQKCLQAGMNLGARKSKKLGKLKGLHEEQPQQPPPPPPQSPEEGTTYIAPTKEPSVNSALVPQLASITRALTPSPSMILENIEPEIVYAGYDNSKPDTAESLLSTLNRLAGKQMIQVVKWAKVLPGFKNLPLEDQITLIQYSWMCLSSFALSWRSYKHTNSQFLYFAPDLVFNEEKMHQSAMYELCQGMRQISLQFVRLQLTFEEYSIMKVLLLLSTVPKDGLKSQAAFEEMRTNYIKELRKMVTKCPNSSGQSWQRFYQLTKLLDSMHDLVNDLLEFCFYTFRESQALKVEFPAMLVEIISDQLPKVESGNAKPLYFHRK
Experimental: as §1, §2

aldo-induced NGAL upregulation in dendritic cells ([1]; spironolactone 5 μM plus aldo 10 nM) | NGAL expression in macrophages [2] | NGAL expression in dendritic cells ([1]; aldo 10 nM) | Compound
blocked | – | – | CC(=O)S[C@@H]1CC2=CC(=O)CC[C@]2(C)[C@H]2CC[C@@]3(C)[C@@H](CC[C@@]34CCC(=O)O4)[C@H]12 [spironolactone]
– | aldo/MR target gene in the macrophages | upregulated | C[C@]12CCC(=O)C=C1CC[C@@H]1[C@@H]2[C@@H](O)C[C@]2(C=O)[C@@H](C(=O)CO)CC[C@@H]12 [aldo, Aldosterone]
